From US20250312369A1, “ANTI-AGING AND ANTI-INFLAMMATORY COMPOSITIONS COMPRISING NICOTINAMIDE MONONUCLEOTIDE AND RESVERATROL AND USES THEREOF” (WONDERFEEL, priority 2022, published 2025)

Columns and labels:
[1] = test system: human lung epithelial cell line (A549); assay: LDH release after hydrogen peroxide and hypoxic injury in A549 cells; assay type: cell-based; conditions: 100 micromolar H2O2, 18 hours at 37° C., 95% nitrogen and 5% carbon dioxide, treatment agents 10 micromolar in the media
Procedure: In order to model cytoprotective effects of the invention, a reductionist in vitro model was employed wherein a human lung epithelial cell line (A549) was exposed to severe oxidant and hypoxic stress. Cultured A549 cells were placed in 96 well plates, incubated in Dulbecco's Modified Eagle's Medium (DMEM), and allowed to grow to confluence over 72 hours. Cellular injury was created by the addition into the media of 100 micromolar hydrogen peroxide (H2O2), followed by incubation at 37° C. for 18 hours in an atmosphere of 95% nitrogen and 5% carbon dioxide, which maintained a pH in the incubation media of 7.4. Three experimental arms were evaluated, using quadruplicate replicates, as follows: a) media control, b) NMN, and c) NMN plus resveratrol and hydroxytyrosol. A control arm was examined that was not exposed to hydrogen peroxide. The treatment agents were added such that their final concentration in the media was 10 micromolar. lactate dehydrogenase (LDH) was assayed in the media after 18 hours using a commercial kit, based upon a colorimetric change quantified by visible spectrophotometry.

[2] = prediabetic women, clinical trial 2021; cited from earlier work
[3] = animals and humans, even at high doses; cited from earlier work
[4] = test system: sirtuin-1; conditions: 500 mg/day, healthy and slightly overweight subjects; cited from earlier work

For `NC(=O)c1ccc[n+]([C@@H]2O[C@H](COP(=O)([O-])O)[C@@H](O)[C@H]2O)c1` [NMN, 3-carbamoyl-1-[5-O-(hydroxyphosphinato)-β-D-ribofuranosyl] pyridinium], the “reduction in the elevation in LDH release produced by addition of hydrogen peroxide alone” value [1] is given as 14% and the muscular insulin sensitivity [2] is given as “improve muscular insulin sensitivity”.
In the case of `C[N+](C)(C)[C@@H](Cc1c[nH]c(=S)[nH]1)C(=O)[O-]` [ergothioneine, (2S)-3-(2-sulfanylidene-2,3-dihydro-1H-imidazol-4-yl)-2-(trimethylazaniumyl)propanoate], the “toxicity or adverse effects associated with administration” value [3] is listed as “no toxicity or adverse effects”.
For `Oc1ccc(/C=C/c2cc(O)cc(O)c2)cc1` [resveratrol, 3,4′,5-trihydroxy-trans-stilbene], the “gene expression and serum concentration of sirtuin-1” value [4] is given as “higher gene expression and serum concentration of sirtuin-1”.
